{"source": "patent US7884077B2", "about": "“Methods for the treatment of mood disorders” (The McLean Hospital Corporation, priority 2006, dated 2011)", "key": {"sigma receptors": {"test_system": "sigma receptors", "details": "Bidlack et al., 2000; cited from earlier work"}, "[1]": {"test_system": "human subjects who have been diagnosed with bipolar disorder and are acutely manic", "assay": "Open-label cumulative-dosing clinical trial of pentazocine in acutely manic subjects", "format": "in vivo", "details": "for YMRS mean: morning", "experimental": "A trial study was conducted to determine the effect of pentazocine on the mood of human subjects who have been diagnosed with bipolar disorder and are acutely manic. Ten subjects (7 male and 3 female) between the ages of 18 and 65 were enrolled in the study. All subjects were admitted to the hospital with a primary diagnosis of bipolar mania by DSMIV criteria. […] Subjects with a current history of substance abuse or a recent history of opiate dependence were excluded. All subjects were deemed competent to give informed consent by non-study physicians. After complete description of the study to the subjects, written informed consent was obtained.\nThe current study was undertaken in full compliance with federal requirements and with institutional review board approval. The study was designed as an open-label cumulative-dosing trial.\nThe three-day study consisted of pre-treatment, treatment, and post-treatment days with subjects rated in the morning on all three days and multiple times on the day of treatment. On the treatment day, an initial 50 mg of pentazocine was given by mouth. A second dose was given two hours following the initial dose. Pentazocine was given as Talwin Nx (Sanofi-Synthlabo), consisting of 50 mg dose pentazocine with 0.5 mg naloxone (naloxone is added to limit the intra-venous abuse potential of this drug but is not absorbed when given by oral administration as used here).\nAssessment of manic symptoms by YMRS were made daily at the same time in the morning on all three days of the study. As the YMRS was designed to reflect the past 48 hours, it is not sensitive to acute symptomatic change (IsHak et al, 2002) YMRS and DSMIV criteria were used as the basis for constructing a scale to detect acute changes in manic symptoms (The Mania Acute Change Scale or MACS). […] The MACS scale is available online at www.mcleanhospital.org. The MACS, which includes items from the YMRS and a brief assessment of dysphoria/depression was given along with the YMRS in the morning on all three days of the study. In addition, the MACS was given hourly for 6 hours starting with the first dose of pentazocine. All investigator ratings were performed by investigator Beth Murphy, M. D., Ph.D. A self-rating scale designed to assess manic symptoms and medication side effects was completed by subjects whenever the MACS was given. Staff reports were reviewed, with special note of the duration of sleep and whether any ‘pro re nata’ (PRN) medications were required. Data were analyzed using a repeated measures ANOVA (SPSS 14.0)."}, "KOR": {"biological_target": "KOR (Homo sapiens, UniProt P41145)", "sequence (P41145 whole entry)": "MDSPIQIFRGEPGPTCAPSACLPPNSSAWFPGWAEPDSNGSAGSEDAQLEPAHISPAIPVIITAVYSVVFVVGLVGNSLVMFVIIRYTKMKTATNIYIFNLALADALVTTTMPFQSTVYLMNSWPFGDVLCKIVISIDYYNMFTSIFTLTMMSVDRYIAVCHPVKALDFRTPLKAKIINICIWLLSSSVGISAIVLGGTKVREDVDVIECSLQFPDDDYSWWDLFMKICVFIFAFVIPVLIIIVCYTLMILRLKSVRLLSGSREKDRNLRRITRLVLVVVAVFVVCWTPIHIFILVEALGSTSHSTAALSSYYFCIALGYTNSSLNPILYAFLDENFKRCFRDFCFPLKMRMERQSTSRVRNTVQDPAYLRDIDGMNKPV", "details": "Zhu et al., 1997; cited from earlier work"}, "mu opiate receptors": {"biological_target": "mu opiate receptors (Homo sapiens, UniProt P35372)", "sequence (P35372 whole entry)": "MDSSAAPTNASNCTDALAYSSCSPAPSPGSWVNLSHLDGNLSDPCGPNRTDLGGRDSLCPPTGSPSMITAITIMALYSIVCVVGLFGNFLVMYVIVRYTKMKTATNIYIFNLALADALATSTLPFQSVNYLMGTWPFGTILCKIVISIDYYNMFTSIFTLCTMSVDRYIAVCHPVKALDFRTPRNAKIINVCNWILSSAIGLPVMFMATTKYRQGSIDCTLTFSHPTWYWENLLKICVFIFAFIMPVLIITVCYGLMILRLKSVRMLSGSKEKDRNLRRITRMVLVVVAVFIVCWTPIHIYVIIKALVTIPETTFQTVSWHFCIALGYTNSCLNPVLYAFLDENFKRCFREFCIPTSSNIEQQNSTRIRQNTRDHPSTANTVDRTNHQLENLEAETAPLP", "details": "Bidlack et al., 2000; cited from earlier work"}, "[2]": {"details": "50 mg by mouth at Hour 0 and Hour 2, hourly ratings"}, "[3]": {"details": "one hour after first 50 mg oral dose"}, "[4]": {"details": "second 50 mg oral dose given at hour 2"}}, "note": "Entries after “also recorded” stand apart in the source; their conditions may differ."}
{"smiles": "CC(C)=CCN1CCC2(C)c3cc(O)ccc3CC1C2C", "note": "(centres unmarked) [pentazocine]", "values": [{"measurement": "affinity and effects at sigma receptors relative to KOR", "setting": "sigma receptors", "value": "lower affinity and weaker effects"}, {"measurement": "dysphoria", "setting": "[1]; 50 mg by mouth at Hour 0 and Hour 2", "value": "No dysphoria was reported; also recorded: None of the subjects complained of dysphoria"}, {"measurement": "effect on manic symptoms (total MACS score)", "setting": "[1]; [2]", "value": "manic symptoms decreased; also recorded: All subjects experienced an improvement in manic symptoms; also recorded: transient but substantial and statistically significant reduction in manic symptoms"}, {"measurement": "effect on psychotic symptoms (clinician rating)", "setting": "[1]; [2]", "value": "no significant changes in psychosis; also recorded: No subject experienced exacerbation of psychotic symptoms; also recorded: most subjects experienced a mild improvement in psychotic symptoms"}, {"measurement": "sedation (clinician rating, scale of 0-4)", "setting": "[1]; [2]", "value": "mild (half-point), nonsignificant, increases in sedation; also recorded: Sedation was low"}, {"measurement": "mean total MACS score", "setting": "[1]; Hour 0 (baseline), before first dose", "value": 20.1}, {"measurement": "mean total MACS score", "setting": "[1]; hour 2, when second dose was given", "value": 18.6}, {"measurement": "mean total MACS score", "setting": "[1]; hour 3, one hour after second 50 mg oral dose", "value": 11.0}, {"measurement": "mean change in total manic symptom ratings (MACS) from baseline", "setting": "[1]; [3]", "value": "−8.8"}, {"measurement": "mean total MACS score", "setting": "[1]; [3]", "value": 11.3}, {"measurement": "mean change in total manic symptom ratings from baseline (decrease)", "setting": "[1]; one hour after first 50 mg oral dose, MACS, 10 subjects", "value": 44, "unit": "%"}, {"measurement": "rebound in symptoms after treatment", "setting": "[1]; post-treatment day", "value": "no evidence of a rebound in symptoms after treatment"}, {"measurement": "YMRS mean", "setting": "[1]; post-treatment day", "value": "12.7 ± 8.4"}, {"measurement": "YMRS mean", "setting": "[1]; pretreatment day", "value": "23.6 ± 8.9"}, {"measurement": "fall in mean MACS score between hour 2 and hour 3", "setting": "[1]; [4]", "value": 7.6, "unit": "points"}, {"measurement": "fall in mean total manic symptom ratings (MACS) between hour 2 and hour 3", "setting": "[1]; [4]", "value": 41, "unit": "%"}, {"measurement": "YMRS mean", "setting": "[1]; treatment day", "value": "22.0 ± 6.9"}, {"measurement": "tolerability / side effects", "setting": "[1]; two 50 mg oral doses two hours apart", "value": "well-tolerated; also recorded: No subject experienced significant side effects; also recorded: No adverse effects, including psychotomimetic effects, were observed or reported"}, {"measurement": "efficacy at KOR", "setting": "KOR", "value": "partial agonist"}, {"measurement": "affinity and effects at mu opiate receptors relative to KOR", "setting": "mu opiate receptors", "value": "lower affinity and weaker effects"}]}
